Assay results published in patent publication US8497278B2, “Imidazo[1,2-a]pyridine compounds” (priority 2008, dated 2013).

Assays:
[1] = target: T1, α1 subtype containing GABA-A receptors (Homo sapiens, UniProt P14867+P18507); test: Two-electrode voltage clamp electrophysiology in Xenopus oocytes, potentiation of GABA EC20 response, α1; type: cell-based; conditions: 100 nM compound; for activation at 0.1 µM: read-out: Percentage of potentiation alpha1
T1 construct: expressed in transfected cells; host or cells: Xenopus laevis oocytes, cRNA injected
T1 sequence (P14867 28-456): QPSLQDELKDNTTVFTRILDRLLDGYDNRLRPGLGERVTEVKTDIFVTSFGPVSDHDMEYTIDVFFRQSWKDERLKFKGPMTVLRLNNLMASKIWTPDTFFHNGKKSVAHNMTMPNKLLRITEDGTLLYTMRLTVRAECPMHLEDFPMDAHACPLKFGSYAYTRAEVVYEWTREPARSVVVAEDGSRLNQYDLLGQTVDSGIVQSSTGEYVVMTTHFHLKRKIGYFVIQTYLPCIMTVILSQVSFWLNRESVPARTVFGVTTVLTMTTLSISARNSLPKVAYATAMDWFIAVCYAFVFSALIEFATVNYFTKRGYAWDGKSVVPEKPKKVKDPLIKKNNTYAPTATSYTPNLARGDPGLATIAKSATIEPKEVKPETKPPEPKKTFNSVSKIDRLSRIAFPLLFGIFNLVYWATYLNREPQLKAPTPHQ
T1 sequence (P28472 26-473 partner): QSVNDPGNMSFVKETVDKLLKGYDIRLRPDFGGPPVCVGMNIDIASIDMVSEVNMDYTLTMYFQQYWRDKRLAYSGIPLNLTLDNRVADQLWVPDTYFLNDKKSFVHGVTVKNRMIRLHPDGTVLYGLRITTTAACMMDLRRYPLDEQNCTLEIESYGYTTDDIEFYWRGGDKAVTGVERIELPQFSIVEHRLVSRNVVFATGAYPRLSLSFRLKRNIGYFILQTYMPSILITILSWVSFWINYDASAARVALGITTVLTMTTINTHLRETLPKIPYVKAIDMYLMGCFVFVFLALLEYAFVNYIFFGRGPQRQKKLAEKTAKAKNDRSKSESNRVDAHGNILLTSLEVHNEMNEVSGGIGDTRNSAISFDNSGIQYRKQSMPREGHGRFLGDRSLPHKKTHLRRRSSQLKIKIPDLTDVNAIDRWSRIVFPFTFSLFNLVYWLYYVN
T1 sequence (P18507 40-475): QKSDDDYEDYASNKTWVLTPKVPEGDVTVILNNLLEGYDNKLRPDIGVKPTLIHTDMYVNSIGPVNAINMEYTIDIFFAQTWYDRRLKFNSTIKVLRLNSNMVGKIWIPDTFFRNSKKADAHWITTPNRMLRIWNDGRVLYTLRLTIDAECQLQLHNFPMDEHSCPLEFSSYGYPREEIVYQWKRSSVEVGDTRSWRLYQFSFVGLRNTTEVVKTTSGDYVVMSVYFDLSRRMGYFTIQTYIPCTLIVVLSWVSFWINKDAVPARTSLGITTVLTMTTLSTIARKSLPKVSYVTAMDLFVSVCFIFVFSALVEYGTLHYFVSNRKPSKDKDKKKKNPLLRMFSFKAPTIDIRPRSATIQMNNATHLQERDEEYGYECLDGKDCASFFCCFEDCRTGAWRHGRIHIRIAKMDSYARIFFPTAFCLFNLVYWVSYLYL
Protocol: (§1) Electrophysiology protocol: Oocytes were prepared from adult female Xenopus laevis frogs. cRNA encoding human α1, α2, α3, α5, β3 and γ2L GABAA receptor subunits was injected into the cytoplasm of stage 5 or 6 oocytes using the Robocyte Robot (Multi Channel Systems, Reutlingen, Germany). Two-electrode voltage clamp recordings were made in 96-well plates using the Robocyte Robot. Oocytes were impaled using recording heads with two glass electrodes containing 1.5 M potassium acetate and 0.5 M KCl and held at a membrane potential of −80 mV. Oocytes were continually perfused with a ND96 solution (96 mM NaCl, 2 mM KCl, 0.1 mM CaCl2, and 5 mM HEPES, pH 7.5) using a Gilson 222 XL Liquid Handler and Gilson Minipuls 3 Peristaltic Pump (Gilson Medical Electronics, Middleton, Wis., USA). The protocol consisted of three 20-s applications of GABA that gave a 20% of the maximum response (EC20: 60 μM) to allow for headroom to determine a baseline GABA response. To assess the potentiation, oocytes were first exposed to a single 1 μM chlordiazepoxide (CDP) as a potentiation standard. Oocytes with insufficient expression levels (currents below threshold) or insufficient γ2L subunit incorporation (judged by rapid desensitization upon GABA application, or by insufficient potentiation by CDP) were not included in analysis. Following this control application, a given oocyte was exposed to test compounds at 100 nM concentrations. Only one concentration of one compound was tested per oocyte. […] One skilled in the art will recognize that subtypes contribute to the effects of GABA-A modulators. Such that compounds favoring different subtypes can have different therapeutic effects. The magnitude of modulation, for example, partial modulators can influence the effects in vivo. “++” indicates a greater modulation that “+” so that at any given subtype “++” inducates a greater amount of modulation for that subtype. In some embodiments, modulation favoring alpha 1 relative to alpha2 and/or alpha 3 can have sedative hypnotic effects. In other embodiments, compounds with reduced selectivity of alpha 1 can express anxiolytic effects with less sedation. Compounds with selectivity for alpha 5 can have memory/cognition enhancing effects.

[2] = system: central benzodiazepine receptors; test: Central benzodiazepine receptor binding (test of Speth et al.); conditions: 1000 nM of the compound
Outline: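 Radioligand binding by the Speth et al. method. Specific binding is total minus nonspecific binding, the latter measured with excess unlabelled ligand. Compounds screened at 1.0E-09, 1.0E-07 and 1.0E-05 M in single determination; values given as percent inhibition at 1000 nM compound.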

[3] = target: T2, α2 subtype containing GABA-A receptors (Homo sapiens, UniProt P18507+P47869); test: Two-electrode voltage clamp electrophysiology in Xenopus oocytes, potentiation of GABA EC20 response, α2; type: cell-based; conditions: 100 nM compound; for activation at 0.1 µM: read-out: Percentage of potentiation alpha2
T2 construct: expressed in transfected cells; host or cells: Xenopus laevis oocytes, cRNA injected
T2 sequence (P47869 29-451): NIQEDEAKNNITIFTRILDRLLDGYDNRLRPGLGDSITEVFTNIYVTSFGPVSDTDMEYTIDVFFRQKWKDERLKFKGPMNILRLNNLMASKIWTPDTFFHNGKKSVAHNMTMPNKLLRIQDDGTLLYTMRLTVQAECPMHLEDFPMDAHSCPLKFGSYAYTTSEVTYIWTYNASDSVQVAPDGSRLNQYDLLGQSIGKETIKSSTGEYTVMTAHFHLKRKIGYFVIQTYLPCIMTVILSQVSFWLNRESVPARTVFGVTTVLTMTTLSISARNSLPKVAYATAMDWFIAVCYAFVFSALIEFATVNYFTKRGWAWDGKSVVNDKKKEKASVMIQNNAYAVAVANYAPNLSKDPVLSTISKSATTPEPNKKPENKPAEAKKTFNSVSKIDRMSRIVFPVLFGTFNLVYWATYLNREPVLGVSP
T2 sequence (P28472 26-473 partner): as the sequence (P28472 26-473 partner) above
T2 sequence (P18507 40-475): as the sequence (P18507 40-475) above
Protocol: as §1

SMILES	Percentage of potentiation alpha1 [1]	% Inhibition at 1000 nM for CBZD [2]	Percentage of potentiation alpha2 [3]	activation at 0.1 µM [1] [%]	activation at 0.1 µM [3] [%]
Clc1ccc(-c2nc3ccc(Cl)cn3c2Cn2ccnn2)cc1 [Compound 19, 3-((1H-1,2,3-triazol-1-yl)methyl)-6-chloro-2-(4-chlorophenyl)H-imidazo[1,2-a]pyridine]	+ (percentage of potentiation is greater than or equal to 10% but less than 50% in the presence of 100 nM of the compound)	++ (percentage of inhibition of central BZD site binding is greater than 80% in the presence of 1000 nM of the compound)	+ (percentage of potentiation is greater than or equal to 10% but less than 50% in the presence of 100 nM of the compound)	–	–
Cc1ccc(-c2nc3ccc(C)cn3c2Cn2cccn2)cc1 [Compound 8, 3-((1H-pyrazol-1-yl)methyl)-6-methyl-2-p-tolylH-imidazo[1,2-a]pyridine]	++ (percentage of potentiation is greater than or equal to 50% in the presence of 100 nM of the compound)	++ (percentage of inhibition of central BZD site binding is greater than 80% in the presence of 1000 nM of the compound)	+ (percentage of potentiation is greater than or equal to 10% but less than 50% in the presence of 100 nM of the compound)	–	–
Fc1ccc2nc(-c3ccc(Cl)cc3)c(Cn3ccnn3)n2c1 [Compound 57, 3-((1H-1,2,3-triazol-1-yl)methyl)-2-(4-chlorophenyl)-6-fluoroH-imidazo[1,2-a]pyridine]	+ (percentage of potentiation is greater than or equal to 10% but less than 50% in the presence of 100 nM of the compound)	++ (percentage of inhibition of central BZD site binding is greater than 80% in the presence of 1000 nM of the compound)	++ (percentage of potentiation is greater than or equal to 50% in the presence of 100 nM of the compound)	–	–
Fc1ccc2nc(-c3ccc(Cl)cc3)c(Cn3nc4ccccc4n3)n2c1 [Compound 59, 2-((2-(4-chlorophenyl)-6-fluoroH-imidazo[1,2-a]pyridin-3-yl)methyl)-2H-benzo[d][1,2,3]triazole]	0 (percentage of potentiation is between about 10% to about −10%)	+ (percentage of inhibition of central BZD site binding is greater than 50% but less than 80% in the presence of 1000 nM of the compound)	0 (percentage of potentiation is between about 10% to about −10%)	–	–
O=c1ccn(Cc2c(-c3ccc(Cl)cc3)nc3ccccn23)c(=O)[nH]1 [Compound 123, 1-((2-(4-chlorophenyl)imidazo[1,2-a]pyridin-3-yl)methyl)pyrimidine-2,4(1H,3H)-dione]	–	++ (percentage of inhibition of central BZD site binding is greater than 80% in the presence of 1000 nM of the compound)	–	10 to 50	10 to 50
Cc1cccc(=O)n1Cc1c(-c2ccc(Cl)cc2)nc2ccc(F)cn12 [Compound 120, 1-((2-(4-chlorophenyl)-6-fluoroimidazo[1,2-a]pyridin-3-yl)methyl)-6-methylpyridin-2(1H)-one]	–	++ (percentage of inhibition of central BZD site binding is greater than 80% in the presence of 1000 nM of the compound)	–	≥ 50	≥ 50
O=C1CCN1Cc1c(-c2ccccc2)nc2ccc(Cl)cn12 [Compound 115, 1-(6-Chloro-2-phenyl-imidazo[1,2-a]pyridin-3-ylmethyl)-azetidin-2-one]	–	++ (percentage of inhibition of central BZD site binding is greater than 80% in the presence of 1000 nM of the compound)	–	10 to 50	10 to 50
Clc1ccc2nc(-c3ccccc3)c(Cn3nc4ccccc4n3)n2c1 [Compound 47, 2-((6-chloro-2-phenylH-imidazo[1,2-a]pyridin-3-yl)methyl)-2H-benzo[d][1,2,3]triazole]	0 (percentage of potentiation is between about 10% to about −10%)	+ (percentage of inhibition of central BZD site binding is greater than 50% but less than 80% in the presence of 1000 nM of the compound)	0 (percentage of potentiation is between about 10% to about −10%)	–	–
O=C(NO)c1nc(Cc2c(-c3ccc(Cl)cc3)nc3ccc(F)cn23)no1 [Compound 222, 3-((2-(4-chlorophenyl)-6-fluoroimidazo[1,2-a]pyridin-3-yl)methyl)-N-hydroxy-1,2,4-oxadiazole-5-carboxamide]	–	–	–	-10 to 10	≥ 50
Cc1ccc(-c2nc3ccc(C)cn3c2CNc2nccnn2)cc1 [Compound 145, (6-Methyl-2-p-tolyl-imidazo[1,2-a]pyridin-3-ylmethyl)-[1,2,4]triazin-3-yl-amine]	–	–	–	≥ 50	10 to 50
CONC(=O)c1nc(Cc2c(-c3ccc(F)cc3)nc3ccc(F)cn23)no1 [Compound 224, 3-((2-(4-fluorophenyl)-6-fluoroimidazo[1,2-a]pyridin-3-yl)methyl)-N-methyoxy-1,2,4-oxadiazole-5-carboxamide]	0 (percentage of potentiation is between about 10% to about −10%)	–	+ (percentage of potentiation is greater than or equal to 10% but less than 50% in the presence of 100 nM of the compound)	–	–
CNC(=O)c1nc(Cc2c(-c3ccc(F)cc3)nc3ccc(F)cn23)no1 [Compound 221, 3-((6-fluoro-2-(4-fluorophenyl)imidazo[1,2-a]pyridin-3-yl)methyl)-N-methyl-1,2,4-oxadiazole-5-carboxamide]	–	–	–	-10 to 10	10 to 50
Nc1ccn(Cc2c(-c3ccc(Cl)cc3)nc3ccccn23)c(=O)n1 [Compound 106, 4-amino-1-((2-(4-chlorophenyl)imidazo[1,2-a]pyridin-3-yl)methyl)pyrimidin-2(1H)-one]	–	–	–	10 to 50	10 to 50
CN(O)C(=O)c1nc(Cc2c(-c3ccc(F)cc3)nc3ccc(F)cn23)no1 [Compound 225, 3-((6-fluoro-2-(4-fluorophenyl)imidazo-[1,2-a]pyridin-3-yl)methyl)-N-hydroxy-N-methyl-1,2,4-oxadiazole-5-carboxamide]	–	–	–	≤ -10	10 to 50
NC(=O)c1nc(Cc2c(-c3ccc(Cl)cc3)nc3ccc(F)cn23)no1 [Compound 217, 3-((2-(4-chlorophenyl)-6-fluoroimidazo[1,2-a]pyridin-3-yl)methyl)-1,2,4-oxadiazole-5-carboxamide]	–	–	–	10 to 50	≥ 50
CNC(=O)c1nc(Cc2c(-c3ccc(F)cc3)nc3ccc(Cl)cn23)no1 [Compound 218, 3-((2-(4-fluorophenyl)-6-chloroimidazo[1,2-a]pyridin-3-yl)methyl)-1,2,4-oxadiazole-5-N-methyl-carboxamide]	+ (percentage of potentiation is greater than or equal to 10% but less than 50% in the presence of 100 nM of the compound)	–	++ (percentage of potentiation is greater than or equal to 50% in the presence of 100 nM of the compound)	–	–
NNC(=O)c1nc(Cc2c(-c3ccc(Cl)cc3)nc3ccccn23)no1 [Compound 215, 3-((2-(4-chlorophenyl)imidazo[1,2-a]pyridin-3-yl)methyl)-1,2,4-oxadiazole-5-carbohydrazide]	–	–	–	-10 to 10	10 to 50
CNC(=O)c1ncn(Cc2c(-c3ccc(Cl)cc3)nc3ccccn23)n1 [Compound 73, 1-((2-(4-chlorophenyl)imidazo[1,2-a]pyridin-3-yl)methyl)-N-methyl-1H-1,2,4-triazole-3-carboxamide]	–	–	–	10 to 50	10 to 50
COC(=O)c1ncn(Cc2c(-c3ccc(Cl)cc3)nc3ccccn23)n1 [Compound 25, 1-[2-(4-Chloro-phenyl)-imidazo[1,2-a]pyridin-3-ylmethyl]-1H-[1,2,4]triazole-3-carboxylic acid methyl ester]	–	–	–	10 to 50	≥ 50
Clc1ccc(-c2nc3ccccn3c2Cn2nnc3ccccc32)cc1 [Compound 42, 1-((2-(4-chlorophenyl)H-imidazo[1,2-a]pyridin-3-yl)methyl)-1H-benzo[d][1,2,3]triazole]	+ (percentage of potentiation is greater than or equal to 10% but less than 50% in the presence of 100 nM of the compound)	–	+ (percentage of potentiation is greater than or equal to 10% but less than 50% in the presence of 100 nM of the compound)	–	–
